A short description of data set [1]: in vivo. As to conditions: Sprague-Dawley CD, rat, plasma, sc, 5 mg/kg.
A short description of data set [2]: Half life in plasma of Sprague-Dawley CD rat at 5 mg/kg, sc administered as single dose measured over 1 to 168 hrs post dose by LC/MS-MS method. It is filed as ADME, organism-based.
The nature of data set [3]: in vivo. The settings on record: Sprague-Dawley CD, rat, brain, sc, 5 mg/kg.
The nature of data set [4]: Total AUC in plasma of Sprague-Dawley CD rat at 5 mg/kg, sc administered as single dose measured over 1 to 168 hrs post dose by LC/MS-MS method. It is filed as ADME, organism-based. Set-up: dose 5 mg/kg, route subcutaneous, time AUCmax.
A short description of data set [5]: Clearance in plasma of Sprague-Dawley CD rat at 5 mg/kg, sc administered as single dose measured over 1 to 168 hrs post dose by LC/MS-MS method. It is filed as ADME, organism-based.
Data set [6] can be described thus: Ratio of AUClast in brain to plasma of Sprague-Dawley CD rat at 5 mg/kg, sc administered as single dose measured over 1 to 168 hrs post dose by LC/MS-MS method. It is filed as ADME, organism-based.
Data set [7] deals with Kappa-type opioid receptor (Homo sapiens) (UniProt P41145). Briefly: Agonist activity at human kappa-opioid receptor expressed in CHO cell membranes assessed as stimulation of [35S]GTPgammaS binding at 10 uM incubated for 60 mins by scintillation counting method. In kind it is functional.
Data set [8] can be described thus: Drug level in brain of Sprague-Dawley CD rat at 5 mg/kg, sc administered as single dose measured after 168 hrs post dose by LC/MS-MS method. It is filed as ADME, organism-based. As to conditions: in vivo.
A short description of data set [9]: Total AUC in brain of Sprague-Dawley CD rat at 5 mg/kg, sc administered as single dose measured over 1 to 168 hrs post dose by LC/MS-MS method. In kind it is ADME, organism-based. Set-up: dose 5 mg/kg, time AUCmax, route subcutaneous. The settings on record: in vivo.
The target of data set [10] is Delta-type opioid receptor (Homo sapiens) (UniProt P41143). In words: Agonist activity at human delta-opioid receptor expressed in CHO cell membranes assessed as stimulation of [35S]GTPgammaS binding at 10 uM incubated for 60 mins by scintillation counting method. It is filed as functional. In general terms: GTPγS resists hydrolysis and so accumulates on activated G proteins.

Data set [11] addresses Mu-type opioid receptor (Homo sapiens) (UniProt P35372). In words: Agonist activity at human mu-opioid receptor expressed in CHO cell membranes assessed as stimulation of [35S]GTPgammaS binding at 10 uM incubated for 60 mins by scintillation counting method. In kind it is functional.
Data set [12] can be described thus: Drug level in plasma of Sprague-Dawley CD rat at 5 mg/kg, sc administered as single dose measured after 168 hrs post dose by LC/MS-MS method. In kind it is ADME, organism-based. As to conditions: in vivo.
In data set [13] the target is Delta-type opioid receptor (Homo sapiens) (UniProt P41143). Briefly: Antagonist activity at human delta-opioid receptor expressed in CHO cell membranes assessed as inhibition of DPDPE-induced [35S]GTPgammaS binding incubated for 60 mins by scintillation counting method. It is filed as functional.
A short description of data set [14]: AUClast in plasma of Sprague-Dawley CD rat at 5 mg/kg, sc administered as single dose measured over 1 to 168 hrs post dose by LC/MS-MS method. It is filed as ADME, organism-based. Set-up: dose 5 mg/kg, route subcutaneous, time 0 - last.
A short description of data set [15]: AUClast in brain of Sprague-Dawley CD rat at 5 mg/kg, sc administered as single dose measured over 1 to 168 hrs post dose by LC/MS-MS method. In kind it is ADME, organism-based. As to conditions: in vivo.
The nature of data set [16]: Half life in brain of Sprague-Dawley CD rat at 5 mg/kg, sc administered as single dose measured over 1 to 168 hrs post dose by LC/MS-MS method. In kind it is ADME, organism-based.
The species entered for data set [17] is Homo sapiens. In words: Selectivity index, ratio of Ke for antagonist activity at human delta-opioid receptor expressed in CHO cell membranes to Ke for antagonist activity at human kappa-opioid receptor expressed in CHO cell membranes. In kind it is cell-based.
For data set [18], the species on record is Homo sapiens. In words: Selectivity index, ratio of Ke for antagonist activity at human mu-opioid receptor expressed in CHO cell membranes to Ke for antagonist activity at human kappa-opioid receptor expressed in CHO cell membranes. It is filed as cell-based.
The target of data set [19] is Mu-type opioid receptor (Homo sapiens) (UniProt P35372). In words: Antagonist activity at human mu-opioid receptor expressed in CHO cell membranes assessed as inhibition of DAMGO-induced [35S]GTPgammaS binding incubated for 60 mins by scintillation counting method. It is filed as functional.
Data set [20] deals with Kappa-type opioid receptor (Homo sapiens) (UniProt P41145). In words: Antagonist activity at human kappa-opioid receptor expressed in CHO cell membranes assessed as inhibition of U69593-induced [35S]GTPgammaS binding incubated for 60 mins by scintillation counting method. In kind it is functional.

The text below walks through data of ChEMBL document CHEMBL4145694 (J Med Chem, 2018).

By Tmax is commonly meant the time at which the peak concentration occurs. As a reminder, the half-life is the time in which the quantity being followed falls by half. As a reminder, the CL/F is the apparent clearance, not corrected for the fraction that reaches the circulation. A word on the AUC(0-t): it is the area under the concentration-time curve up to a stated or last time point. High values mean more exposure, low ones less exposure.

Activity calls are given as the source filed them. The rule behind the calls is not given here.

Chain of Kappa-type opioid receptor (Homo sapiens) (P41145 whole entry): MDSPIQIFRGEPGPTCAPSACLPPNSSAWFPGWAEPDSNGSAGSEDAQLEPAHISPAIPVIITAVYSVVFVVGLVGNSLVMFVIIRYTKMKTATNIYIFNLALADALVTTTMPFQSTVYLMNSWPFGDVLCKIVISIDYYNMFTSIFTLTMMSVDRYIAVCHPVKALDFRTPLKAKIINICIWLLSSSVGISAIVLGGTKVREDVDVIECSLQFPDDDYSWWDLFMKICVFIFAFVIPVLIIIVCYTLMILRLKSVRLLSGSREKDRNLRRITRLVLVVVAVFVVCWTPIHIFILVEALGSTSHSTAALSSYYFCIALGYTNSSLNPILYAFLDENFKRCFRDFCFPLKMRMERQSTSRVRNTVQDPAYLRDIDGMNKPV
Chain of Mu-type opioid receptor (Homo sapiens) (P35372 whole entry): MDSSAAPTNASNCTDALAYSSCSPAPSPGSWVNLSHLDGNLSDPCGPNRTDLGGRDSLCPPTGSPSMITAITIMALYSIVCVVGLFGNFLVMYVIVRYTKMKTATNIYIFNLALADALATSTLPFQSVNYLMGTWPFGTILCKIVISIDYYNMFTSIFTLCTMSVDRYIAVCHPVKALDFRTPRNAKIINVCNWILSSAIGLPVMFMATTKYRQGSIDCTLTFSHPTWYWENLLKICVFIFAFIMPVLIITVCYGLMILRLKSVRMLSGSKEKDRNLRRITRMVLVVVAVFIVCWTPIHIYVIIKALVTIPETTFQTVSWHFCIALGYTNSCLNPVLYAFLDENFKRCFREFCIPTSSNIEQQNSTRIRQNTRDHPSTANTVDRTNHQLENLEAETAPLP
Chain of Delta-type opioid receptor (Homo sapiens) (P41143 whole entry): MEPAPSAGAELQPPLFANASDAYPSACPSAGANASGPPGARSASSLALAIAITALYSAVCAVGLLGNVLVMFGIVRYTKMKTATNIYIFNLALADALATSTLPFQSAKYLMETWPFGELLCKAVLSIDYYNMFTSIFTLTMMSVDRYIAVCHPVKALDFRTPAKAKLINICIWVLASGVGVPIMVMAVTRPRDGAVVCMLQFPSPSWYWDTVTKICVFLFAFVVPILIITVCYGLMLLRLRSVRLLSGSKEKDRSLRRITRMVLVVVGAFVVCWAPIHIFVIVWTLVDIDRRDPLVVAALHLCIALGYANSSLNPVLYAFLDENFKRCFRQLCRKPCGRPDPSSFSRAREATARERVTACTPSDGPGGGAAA

As to `CC1CCN(C[C@@H](NC(=O)[C@H]2Cc3ccc(O)cc3CN2)C(C)C)CC1`, the Tmax in [1] was 1 h; in [3] it was 4 h. The half-life was 1840 min in data set [2] and 2.38 days in data set [16]. Besides, the AUC was determined as 1900 ng·h/mL in data set [4] and 21400 ng·h/g in data set [9]. In addition, the CL/F in [5] is 43.8 mL/min/kg. The BPR in data set [6] (brain) turned out to be 10.07. Further, the outcome in data set [7], in data set [10] and in data set [11] was inactive. The Drug uptake result in data set [8] and in [12] was “Active” throughout. Also, the Ke in data set [13] is over 3000 nM. The AUC(0-t) in [14] was determined as 1860 ng·h/mL. The compound also returned an AUClast in data set [15] of 18765 ng·h/g.

In the case of `CC(C)[C@@H](CN1CCC(C)(C)CC1)NC(=O)[C@H]1Cc2ccc(O)cc2CN1`, the Ratio Ke is over 237 in data set [17] and 40 in [18]. For the same compound, the result in data set [7], in [10] and in data set [11] was inactive. Also, the Ke in data set [13] worked out at 847 nM; in data set [19] it was 142 nM.

For the compound `CC(C)[C@@H](CN1CC[C@@](C)(c2cccc(O)c2)[C@@H](C)C1)NC(=O)[C@H]1Cc2ccc(O)cc2CN1` [JDTIC], the Kp in [6] (Sprague-Dawley CD, brain and plasma, read-out: BPR) was determined as 7.

Turning to `CCC1CCN(C[C@@H](NC(=O)[C@H]2Cc3ccc(O)cc3CN2)C(C)C)CC1`, the figures for the Ratio Ke in [17] and in [18] were 1000 and 30, respectively. The result in data set [7], in data set [10] and in data set [11] was inactive. Besides, the Ke was determined as 2.48 nM in data set [20], 2490 nM in [13] and 74.8 nM in [19].
